Measured values from patent US20110040086A1, “Novel Beta-Lactam Antibiotics, Methods for Their Production, and Their Use” (DRITTE PATENTPORTFOLIO BETEILIGUNGSGESELLSCHAFT MB, priority 2007, published 2011).

Assays:
[1] = test system: Staphylococcus aureus 315; assay: agar diffusion test (Test System II, multi-resistant germs); assay type: cell-based; set-up: key: r = resistant (no detectable zone of inhibition)
Method in brief: (§1)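 Compounds, dissolved in methanol or distilled water, were loaded onto paper discs at 10, 50 and 100 μg and placed three per plate on Müller-Hinton agar II spread with a McFarland 0.5 saline suspension. After 18-20 h at 37 °C, inhibition zone diameters were measured.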

[2] = test system: Enterococcus faecalis 769; assay: as above; assay type: cell-based; set-up: key: r = resistant (no detectable zone of inhibition)
Method in brief: as §1

[3] = test system: S. epidermidis 125; assay: as above; assay type: cell-based, Staphylococcus epidermidis
Method in brief: as §1

[4] = test system: S. epidermidis 563; assay: as above; assay type: cell-based, Staphylococcus epidermidis; set-up: key: r = resistant (no detectable zone of inhibition)
Method in brief: as §1

[5] = test system: S. epidermidis 847; assay: as above; assay type: cell-based, Staphylococcus epidermidis; set-up: key: r = resistant (no detectable zone of inhibition)
Method in brief: as §1

[6] = test system: S. epidermidis 1071; assay: as above; assay type: cell-based, Staphylococcus epidermidis; set-up: key: r = resistant (no detectable zone of inhibition)
Method in brief: as §1

[7] = test system: S. epidermidis 1068; assay: as above; assay type: cell-based, Staphylococcus epidermidis; set-up: key: r = resistant (no detectable zone of inhibition)
Method in brief: as §1

[8] = test system: S. aureus 38418; assay: as above; assay type: cell-based, Staphylococcus aureus
Method in brief: as §1

[9] = test system: S. aureus 526; assay: as above; assay type: cell-based, Staphylococcus aureus; set-up: key: r = resistant (no detectable zone of inhibition)
Method in brief: as §1

[10] = test system: S. aureus 39105; assay: as above; assay type: cell-based, Staphylococcus aureus; set-up: key: r = resistant (no detectable zone of inhibition)
Method in brief: as §1

[11] = test system: S. aureus 520; assay: as above; assay type: cell-based, Staphylococcus aureus; set-up: key: r = resistant (no detectable zone of inhibition)
Method in brief: as §1

[12] = test system: S. aureus 33490; assay: as above; assay type: cell-based, Staphylococcus aureus; set-up: key: r = resistant (no detectable zone of inhibition)
Method in brief: as §1

[13] = test system: S. aureus North Germany strain; assay: as above; assay type: cell-based, Staphylococcus aureus; set-up: key: r = resistant (no detectable zone of inhibition)
Method in brief: as §1

[14] = test system: S. aureus 34289; assay: as above; assay type: cell-based, Staphylococcus aureus; set-up: key: r = resistant (no detectable zone of inhibition)
Method in brief: as §1

[15] = test system: S. aureus 36881; assay: as above; assay type: cell-based, Staphylococcus aureus; set-up: key: r = resistant (no detectable zone of inhibition)
Method in brief: as §1

[16] = test system: Escherichia coli SBUG 1135; assay: agar diffusion test (Test System 1, antimicrobial effect); assay type: cell-based; set-up: key: r = resistant (no detectable zone of inhibition)
Method in brief: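 Disc diffusion: compound at 10 μg, 50 μg, 100 μg on sensi-discs, three per plate of nutrient agar seeded with ~10^6 E. coli SBUG 1135 (overnight culture, 17 h, 37° C, diluted 1:100). After 20 h incubation at 37° C, zone diameter recorded in mm.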

[17] = test system: Bacillus megaterium SBUG 1152; assay: as above; assay type: cell-based
Method in brief: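 Paper discs loaded with 10 μg, 50 μg or 100 μg of test substance (methanol or water solution) placed on nutrient agar seeded with 10^6 cells of a 17-h B. megaterium culture. After 20 h at 37° C., zone of inhibition measured as diameter in mm.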

[18] = test system: B. subtilis AWD 166; assay: agar diffusion test (antimicrobial effect); assay type: cell-based, Bacillus subtilis
Method in brief: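 Inhibition zone diameters (mm) read after 20 h incubation at 37 °C. Discs carried 10 μg, 50 μg or 100 μg of test substance, dissolved in methanol or distilled water, on agar inoculated with B. subtilis AWD 166 for dense but separate colonies.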

## 7-[2-(2-ethoxycarbonyl-3,6-dioxocyclohexa-1,4-dienylamino)-2-(4-hydroxyphenyl)-acetylamino]-desacetoxycephalosporanic acid [1d]
[1]; Quantity n 0.029
  Diameter of zone of inhibition: r
[1]; Quantity n 0.14
  Diameter of zone of inhibition: r
[1]; Quantity n 0.29
  Diameter of zone of inhibition: 8 mm
[2]; Quantity n 0.029
  Diameter of zone of inhibition: r
[2]; Quantity n 0.14
  Diameter of zone of inhibition: r
[2]; Quantity n 0.29
  Diameter of zone of inhibition: r
[3]; Quantity n 0.029
  Diameter of zone of inhibition: 10 mm
[3]; Quantity n 0.14
  Diameter of zone of inhibition: 20 mm
[3]; Quantity n 0.29
  Diameter of zone of inhibition: 24 mm
[4]; Quantity n 0.029
  Diameter of zone of inhibition: r
[4]; Quantity n 0.14
  Diameter of zone of inhibition: 12 mm
[4]; Quantity n 0.29
  Diameter of zone of inhibition: 18 mm
[5]; Quantity n [mol] 0.029
  Diameter of zone of inhibition: r
[5]; Quantity n [mol] 0.14
  Diameter of zone of inhibition: 10 mm
[5]; Quantity n [mol] 0.29
  Diameter of zone of inhibition: 14 mm
[6]; Quantity n 0.029
  Diameter of zone of inhibition: r
[6]; Quantity n 0.14
  Diameter of zone of inhibition: 14 mm
[6]; Quantity n 0.29
  Diameter of zone of inhibition: 18 mm
[7]; Quantity n 0.029
  Diameter of zone of inhibition: r
[7]; Quantity n 0.14
  Diameter of zone of inhibition: 12 mm
[7]; Quantity n 0.29
  Diameter of zone of inhibition: 14 mm
[8]; Quantity n [mol] 0.029
  Diameter of zone of inhibition: 10 mm
[8]; Quantity n [mol] 0.14
  Diameter of zone of inhibition: 20 mm
[8]; Quantity n [mol] 0.29
  Diameter of zone of inhibition: 24 mm
[9]; Quantity n 0.029
  Diameter of zone of inhibition: r
[9]; Quantity n 0.14
  Diameter of zone of inhibition: r
[9]; Quantity n 0.29
  Diameter of zone of inhibition: r
[10]; Quantity n 0.029
  Diameter of zone of inhibition: r
[10]; Quantity n 0.14
  Diameter of zone of inhibition: r
[10]; Quantity n 0.29
  Diameter of zone of inhibition: 14 mm
[11]; Quantity n [mol] 0.029
  Diameter of zone of inhibition: r
[11]; Quantity n [mol] 0.14
  Diameter of zone of inhibition: r
[11]; Quantity n [mol] 0.29
  Diameter of zone of inhibition: r
[12]; Quantity n [μmol] 0.029
  Diameter of zone of inhibition: r
[12]; Quantity n [μmol] 0.14
  Diameter of zone of inhibition: 14 mm
[12]; Quantity n [μmol] 0.29
  Diameter of zone of inhibition: 16 mm
[13]; Quantity n 0.029
  Diameter of zone of inhibition: r
[13]; Quantity n 0.14
  Diameter of zone of inhibition: 10 mm
[13]; Quantity n 0.29
  Diameter of zone of inhibition: 12 mm
[14]; Quantity n [mol] 0.029
  Diameter of zone of inhibition: r
[14]; Quantity n [mol] 0.14
  Diameter of zone of inhibition: r
[14]; Quantity n [mol] 0.29
  Diameter of zone of inhibition: r
[15]; Quantity n 0.029
  Diameter of zone of inhibition: r
[15]; Quantity n 0.14
  Diameter of zone of inhibition: 14 mm
[15]; Quantity n 0.29
  Diameter of zone of inhibition: 18 mm
[16]; Quantity n 0.029
  Diameter of zone of inhibition: r
[16]; Quantity n 0.14
  Diameter of zone of inhibition: 12 mm
[16]; Quantity n 0.29
  Diameter of zone of inhibition: 16 mm
[17]; Quantity n 0.029
  Diameter of zone of inhibition: 18 mm
[17]; Quantity n 0.14
  Diameter of zone of inhibition: 30 mm
[17]; Quantity n 0.29
  Diameter of zone of inhibition: 34 mm
[18]; Quantity n 0.029
  Diameter of zone of inhibition: 22 mm
[18]; Quantity n 0.14
  Diameter of zone of inhibition: 30 mm
[18]; Quantity n 0.29
  Diameter of zone of inhibition: 34 mm

## O=C(O)C1=C(Cl)CSC2C(NC(=O)C(NC3=C(C(=O)NCCO)C(=O)C=CC3=O)c3ccccc3)C(=O)N12 (stereo not drawn) [1i, 3-chlorine-7-{2-[2-(2-hydroxyethylcarbamoyl)-3,6-dioxocyclohexa-1,4-dienylamino]-2-phenyl-acetylamino}-8-oxo-1-thia-5-azabicyclo[4.2.0]oct-3-en-4-carboxylic acid]
[1]; Quantity n 0.029
  Diameter of zone of inhibition: r
[1]; Quantity n 0.14
  Diameter of zone of inhibition: 10 mm
[1]; Quantity n 0.29
  Diameter of zone of inhibition: 14 mm
[2]; Quantity n 0.029
  Diameter of zone of inhibition: r
[2]; Quantity n 0.14
  Diameter of zone of inhibition: r
[2]; Quantity n 0.29
  Diameter of zone of inhibition: r
[3]; Quantity n 0.029
  Diameter of zone of inhibition: 20 mm
[3]; Quantity n 0.14
  Diameter of zone of inhibition: 28 mm
[3]; Quantity n 0.29
  Diameter of zone of inhibition: 32 mm
[4]; Quantity n 0.029
  Diameter of zone of inhibition: 12 mm
[4]; Quantity n 0.14
  Diameter of zone of inhibition: 22 mm
[4]; Quantity n 0.29
  Diameter of zone of inhibition: 24 mm
[5]; Quantity n [mol] 0.029
  Diameter of zone of inhibition: 12 mm
[5]; Quantity n [mol] 0.14
  Diameter of zone of inhibition: 20 mm
[5]; Quantity n [mol] 0.29
  Diameter of zone of inhibition: 24 mm
[6]; Quantity n 0.029
  Diameter of zone of inhibition: 14 mm
[6]; Quantity n 0.14
  Diameter of zone of inhibition: 22 mm
[6]; Quantity n 0.29
  Diameter of zone of inhibition: 26 mm
[7]; Quantity n 0.029
  Diameter of zone of inhibition: 12 mm
[7]; Quantity n 0.14
  Diameter of zone of inhibition: 18 mm
[7]; Quantity n 0.29
  Diameter of zone of inhibition: 22 mm
[8]; Quantity n [mol] 0.029
  Diameter of zone of inhibition: 20 mm
[8]; Quantity n [mol] 0.14
  Diameter of zone of inhibition: 30 mm
[8]; Quantity n [mol] 0.29
  Diameter of zone of inhibition: 34 mm
[9]; Quantity n 0.029
  Diameter of zone of inhibition: r
[9]; Quantity n 0.14
  Diameter of zone of inhibition: r
[9]; Quantity n 0.29
  Diameter of zone of inhibition: r
[10]; Quantity n 0.029
  Diameter of zone of inhibition: r
[10]; Quantity n 0.14
  Diameter of zone of inhibition: 18 mm
[10]; Quantity n 0.29
  Diameter of zone of inhibition: 22 mm
[11]; Quantity n [mol] 0.029
  Diameter of zone of inhibition: r
[11]; Quantity n [mol] 0.14
  Diameter of zone of inhibition: r
[11]; Quantity n [mol] 0.29
  Diameter of zone of inhibition: r
[12]; Quantity n [μmol] 0.029
  Diameter of zone of inhibition: 14 mm
[12]; Quantity n [μmol] 0.14
  Diameter of zone of inhibition: 22 mm
[12]; Quantity n [μmol] 0.29
  Diameter of zone of inhibition: 26 mm
[13]; Quantity n 0.029
  Diameter of zone of inhibition: r
[13]; Quantity n 0.14
  Diameter of zone of inhibition: 12 mm
[13]; Quantity n 0.29
  Diameter of zone of inhibition: 16 mm
[14]; Quantity n [mol] 0.029
  Diameter of zone of inhibition: r
[14]; Quantity n [mol] 0.14
  Diameter of zone of inhibition: r
[14]; Quantity n [mol] 0.29
  Diameter of zone of inhibition: r
[15]; Quantity n 0.029
  Diameter of zone of inhibition: r
[15]; Quantity n 0.14
  Diameter of zone of inhibition: 12 mm
[15]; Quantity n 0.29
  Diameter of zone of inhibition: 18 mm
[16]; Quantity n 0.029
  Diameter of zone of inhibition: 18 mm
[16]; Quantity n 0.14
  Diameter of zone of inhibition: 24 mm
[16]; Quantity n 0.29
  Diameter of zone of inhibition: 28 mm
[17]; Quantity n 0.029
  Diameter of zone of inhibition: 26 mm
[17]; Quantity n 0.14
  Diameter of zone of inhibition: 32 mm
[17]; Quantity n 0.29
  Diameter of zone of inhibition: 34 mm
[18]; Quantity n 0.029
  Diameter of zone of inhibition: 30 mm
[18]; Quantity n 0.14
  Diameter of zone of inhibition: 36 mm
[18]; Quantity n 0.29
  Diameter of zone of inhibition: 38 mm
